Biological target: T1, LFA-1 binding to immobilized ICAM-1 (Homo sapiens, UniProt P05107+P20701)
T1 construct: made in house; host or cells: transfected 293 cells (LFA-1)
Assay: LFA-1/ICAM-1 protein-protein assay (solid-phase ELISA)
Conditions: read-out: LFA-1/ICAM-1 Protein-Protein Assay IC50
Method in brief: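 Human 5dICAM-Ig (ICAM-1 extracellular domain–IgG Fc) coated on plates; membrane-bound LFA-1 from transfected 293 cells (280 ng/mL) added with compound in Mn2+-containing HEPES buffer pH 7.2, 2 h at 37° C. Bound LFA-1 detected via anti-β2 antibody and HRP/TMB at 450 nm; IC50s determined.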

T1 sequence (P20701 26-1170): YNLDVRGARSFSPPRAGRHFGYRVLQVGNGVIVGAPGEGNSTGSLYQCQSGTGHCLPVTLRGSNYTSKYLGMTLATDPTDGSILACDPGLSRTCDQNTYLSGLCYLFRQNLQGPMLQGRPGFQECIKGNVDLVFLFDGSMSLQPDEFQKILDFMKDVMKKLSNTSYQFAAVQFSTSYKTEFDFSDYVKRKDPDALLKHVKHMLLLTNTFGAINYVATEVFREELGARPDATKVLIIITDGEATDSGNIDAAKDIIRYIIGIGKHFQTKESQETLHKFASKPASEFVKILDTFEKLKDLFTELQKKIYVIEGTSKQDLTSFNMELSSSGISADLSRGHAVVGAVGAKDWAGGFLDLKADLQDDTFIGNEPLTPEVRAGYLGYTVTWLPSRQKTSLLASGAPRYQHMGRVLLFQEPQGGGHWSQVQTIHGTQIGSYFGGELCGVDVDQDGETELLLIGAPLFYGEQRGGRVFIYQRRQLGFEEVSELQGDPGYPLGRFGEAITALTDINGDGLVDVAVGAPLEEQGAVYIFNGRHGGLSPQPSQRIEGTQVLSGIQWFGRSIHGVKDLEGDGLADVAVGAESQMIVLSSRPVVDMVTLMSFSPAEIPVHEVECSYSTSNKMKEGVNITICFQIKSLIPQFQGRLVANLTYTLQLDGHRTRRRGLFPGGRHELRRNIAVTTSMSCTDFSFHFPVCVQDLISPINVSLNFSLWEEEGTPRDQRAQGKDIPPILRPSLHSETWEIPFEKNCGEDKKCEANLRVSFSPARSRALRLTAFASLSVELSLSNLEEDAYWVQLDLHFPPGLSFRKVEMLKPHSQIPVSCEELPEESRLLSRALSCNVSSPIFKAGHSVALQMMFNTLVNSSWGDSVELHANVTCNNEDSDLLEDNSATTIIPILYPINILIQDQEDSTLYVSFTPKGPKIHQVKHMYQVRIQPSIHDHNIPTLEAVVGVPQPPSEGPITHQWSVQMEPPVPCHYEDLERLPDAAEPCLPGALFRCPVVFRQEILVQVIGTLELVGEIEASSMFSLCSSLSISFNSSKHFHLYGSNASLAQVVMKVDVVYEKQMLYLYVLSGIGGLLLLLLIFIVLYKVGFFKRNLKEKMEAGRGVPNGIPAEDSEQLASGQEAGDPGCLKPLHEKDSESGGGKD
T1 sequence (P05107 23-769): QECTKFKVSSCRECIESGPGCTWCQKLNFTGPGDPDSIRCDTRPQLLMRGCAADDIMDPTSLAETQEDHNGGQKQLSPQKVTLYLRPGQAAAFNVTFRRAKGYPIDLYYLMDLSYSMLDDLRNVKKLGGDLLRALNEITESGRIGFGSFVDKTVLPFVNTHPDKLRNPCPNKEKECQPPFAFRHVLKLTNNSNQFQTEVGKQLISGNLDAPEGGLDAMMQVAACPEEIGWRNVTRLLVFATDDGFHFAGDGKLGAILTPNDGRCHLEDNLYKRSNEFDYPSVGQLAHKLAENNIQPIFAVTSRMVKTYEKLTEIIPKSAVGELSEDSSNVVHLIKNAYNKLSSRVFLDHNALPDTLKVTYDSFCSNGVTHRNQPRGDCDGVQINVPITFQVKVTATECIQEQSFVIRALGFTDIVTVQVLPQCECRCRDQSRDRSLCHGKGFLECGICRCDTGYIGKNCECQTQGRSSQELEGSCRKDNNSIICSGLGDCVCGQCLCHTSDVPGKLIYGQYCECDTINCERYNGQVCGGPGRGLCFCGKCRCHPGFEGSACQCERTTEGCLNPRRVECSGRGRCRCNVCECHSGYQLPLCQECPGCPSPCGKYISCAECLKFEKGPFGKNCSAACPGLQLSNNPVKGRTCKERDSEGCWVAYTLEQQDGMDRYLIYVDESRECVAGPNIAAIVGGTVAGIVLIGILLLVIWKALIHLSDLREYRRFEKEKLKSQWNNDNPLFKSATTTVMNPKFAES

Row | SMILES | IC50
1 | O=C1CC[C@@H](C(=O)NC[C@H](NC(=O)c2ccc(C(=O)NCc3cccc(O)c3)cc2Cl)C(=O)O)O1 [Example 96] | 3.1 nM
2 | O=C(NCc1cccc(O)c1)c1ccc(C(=O)N[C@@H](CNC(=O)C2CC2)C(=O)O)c(Cl)c1 [Example 97] | 1.9 nM
3 | O=C(NCc1cccc(O)c1)c1ccc(C(=O)N[C@@H](CNC(=O)C2(c3ccccc3)CC2)C(=O)O)c(Cl)c1 [Example 99] | 7.5 nM
4 | O=C(NCc1cccc(O)c1)c1ccc(C(=O)N[C@@H](CNC(=O)C2CCC2)C(=O)O)c(Cl)c1 [Example 100] | 2.9 nM
5 | COCCC1(C(=O)NC[C@H](NC(=O)c2ccc(C(=O)NCc3cccc(O)c3)cc2Cl)C(=O)O)CCCC1 [Example 102] | 2.2 nM
6 | O=C(NCc1cccc(O)c1)c1ccc(C(=O)N[C@@H](CNC(=O)C2(c3ccccc3)CCCC2)C(=O)O)c(Cl)c1 [Example 103] | 1.6 nM
7 | O=C(NCc1cccc(O)c1)c1ccc(C(=O)N[C@@H](CNC(=O)C2CCCCC2)C(=O)O)c(Cl)c1 [Example 104] | 3.5 nM
8 | O=C(CCN1CCCCC1)NC[C@H](NC(=O)c1ccc(C(=O)NCc2cccc(O)c2)cc1Cl)C(=O)O [Example 112] | 1.5 nM
9 | COc1ccc(/C=C/C(=O)NC[C@H](NC(=O)c2ccc(C(=O)NCc3cccc(O)c3)cc2Cl)C(=O)O)cc1 [Example 114] | 1.8 nM
10 | O=C(/C=C/c1cccs1)NC[C@H](NC(=O)c1ccc(C(=O)NCc2cccc(O)c2)cc1Cl)C(=O)O [Example 116] | 1.8 nM
11 | CC(=O)Oc1ccccc1C(=O)NC[C@H](NC(=O)c1ccc(C(=O)NCc2cccc(O)c2)cc1Cl)C(=O)O [Example 117] | 3.6 nM
12 | O=C(NCc1cccc(O)c1)c1ccc(C(=O)N[C@@H](CNC(=O)c2cccc(Br)c2)C(=O)O)c(Cl)c1 [Example 121] | 1.6 nM
13 | O=C(NCc1cccc(O)c1)c1ccc(C(=O)N[C@@H](CNC(=O)c2ccccc2Cl)C(=O)O)c(Cl)c1 [Example 122] | 2.8 nM
14 | O=C(NCc1cccc(O)c1)c1ccc(C(=O)N[C@@H](CNC(=O)c2cccc(I)c2)C(=O)O)c(Cl)c1 [Example 133] | 1.5 nM
15 | COc1ccc(C(=O)NC[C@H](NC(=O)c2ccc(C(=O)NCc3cccc(O)c3)cc2Cl)C(=O)O)cc1 [Example 135] | 6.3 nM
16 | COC(=O)c1cccc(C(=O)NC[C@H](NC(=O)c2ccc(C(=O)NCc3cccc(O)c3)cc2Cl)C(=O)O)c1 [Example 136] | 2 nM

Row | SMILES | IC50
17 | O=C(NCc1cccc(O)c1)c1ccc(C(=O)N[C@@H](CNC(=O)c2ccccc2[N+](=O)[O-])C(=O)O)c(Cl)c1 [Example 140] | 1.8 nM
18 | CCCCCOc1ccc(C(=O)NC[C@H](NC(=O)c2ccc(C(=O)NCc3cccc(O)c3)cc2Cl)C(=O)O)cc1 [Example 143] | 11 nM
19 | O=C(NCc1cccc(O)c1)c1ccc(C(=O)N[C@@H](CNC(=O)c2cc(F)c(F)cc2F)C(=O)O)c(Cl)c1 [Example 145] | 1.7 nM
20 | O=C(NCc1cccc(O)c1)c1ccc(C(=O)N[C@@H](CNC(=O)c2cccc(C(F)(F)F)c2)C(=O)O)c(Cl)c1 [Example 146] | 2.6 nM
21 | COc1cc(C(=O)NC[C@H](NC(=O)c2ccc(C(=O)NCc3cccc(O)c3)cc2Cl)C(=O)O)cc(OC)c1OC [Example 147] | 15 nM
22 | O=C(NCc1cccc(O)c1)c1ccc(C(=O)N[C@@H](CNC(=O)c2ccco2)C(=O)O)c(Cl)c1 [Example 148] | 1.4 nM
23 | Cc1noc(C)c1C(=O)NC[C@H](NC(=O)c1ccc(C(=O)NCc2cccc(O)c2)cc1Cl)C(=O)O [Example 153] | 7.7 nM
24 | O=C(NCc1cccc(O)c1)c1ccc(C(=O)N[C@@H](CNC(=O)c2ccc(Cl)s2)C(=O)O)c(Cl)c1 [Example 157] | 1.2 nM
25 | Cc1cccc(C(=O)NC[C@H](NC(=O)c2ccc(C(=O)NCc3cccc(O)c3)cc2Cl)C(=O)O)n1 [Example 163] | 3.2 nM
26 | O=C(NCc1cccc(O)c1)c1ccc(C(=O)N[C@@H](CNC(=O)c2cccnc2)C(=O)O)c(Cl)c1 [Example 165] | 1.3 nM
27 | O=C(NCc1cccc(O)c1)c1ccc(C(=O)N[C@@H](CNS(=O)(=O)c2ccccc2)C(=O)O)c(Cl)c1 [Example 360, 3-(phenylsulfonylamino)-N-[2-chloro-4-[[[(3-hydroxyphenyl)methyl]amino]carbonyl]benzoyl]-L-alanine] | 5.2 nM
28 | O=C(NCc1ccc(C(=O)N[C@@H](CNC(=O)c2ccccc2)C(=O)O)c(Cl)c1)c1ccc2[nH]ccc2c1 [Example 368] | 11 nM
29 | O=C(NCc1ccc(C(=O)N[C@@H](CNC(=O)c2ccccc2)C(=O)O)c(Cl)c1)c1ccc2cc[nH]c2c1 [Example 369] | 8.5 nM
30 | O=C(NC[C@H](NC(=O)c1ccc(/C=C/Cc2ccccc2)cc1Cl)C(=O)O)c1cccs1 [Example 373, N-[2-chloro-4-(3-phenyl-1-propenyl)benzoyl]-3-(thiophene-2-carbonyl)amino-L-alanine] | 7.7 nM
31 | O=C(NC[C@H](NC(=O)c1ccc(C(=O)[C@H]2C[C@@H]2c2ccccc2)cc1Cl)C(=O)O)c1cccs1 [Example 377] | 19 nM
32 | O=C(CCc1ccccc1)c1ccc(C(=O)N[C@@H](CNC(=O)c2cccs2)C(=O)O)c(Cl)c1 [Example 378] | 9.7 nM

Further lines, results first:

Row | IC50 | SMILES
33 | 1.9 nM | O=C(NCc1cccc(O)c1)c1ccc(C(=O)N[C@@H](CNC(=O)C2CCCC2)C(=O)O)c(Cl)c1 [Example 101]
34 | 3.7 nM | O=C(NCc1cccc(O)c1)c1ccc(C(=O)N[C@@H](CNC(=O)[C@H](CC2CCCCC2)n2cccc2)C(=O)O)c(Cl)c1 [Example 110]
35 | 2 nM | Cc1noc(C)c1CCC(=O)NC[C@H](NC(=O)c1ccc(C(=O)NCc2cccc(O)c2)cc1Cl)C(=O)O [Example 111]
36 | 1.7 nM | C/C=C/C(=O)NC[C@H](NC(=O)c1ccc(C(=O)NCc2cccc(O)c2)cc1Cl)C(=O)O [Example 113]
37 | 2.2 nM | O=C(/C=C/c1cccnc1)NC[C@H](NC(=O)c1ccc(C(=O)NCc2cccc(O)c2)cc1Cl)C(=O)O [Example 115]
38 | 4.9 nM | O=C(NCc1cccc(O)c1)c1ccc(C(=O)N[C@@H](CNC(=O)c2ccccc2Br)C(=O)O)c(Cl)c1 [Example 120]
39 | 3.3 nM | O=C(NCc1cccc(O)c1)c1ccc(C(=O)N[C@@H](CNC(=O)c2ccc(Cl)cc2)C(=O)O)c(Cl)c1 [Example 124]
40 | 1.2 nM | N#Cc1cccc(C(=O)NC[C@H](NC(=O)c2ccc(C(=O)NCc3cccc(O)c3)cc2Cl)C(=O)O)c1 [Example 126]
41 | 2.2 nM | CN(C)c1cccc(C(=O)NC[C@H](NC(=O)c2ccc(C(=O)NCc3cccc(O)c3)cc2Cl)C(=O)O)c1 [Example 127]
42 | 4.2 nM | CN(C)c1ccc(C(=O)NC[C@H](NC(=O)c2ccc(C(=O)NCc3cccc(O)c3)cc2Cl)C(=O)O)cc1 [Example 128]
43 | 5 nM | CCOc1ccc(C(=O)NC[C@H](NC(=O)c2ccc(C(=O)NCc3cccc(O)c3)cc2Cl)C(=O)O)cc1 [Example 130]
44 | 2.1 nM | COc1ccccc1C(=O)NC[C@H](NC(=O)c1ccc(C(=O)NCc2cccc(O)c2)cc1Cl)C(=O)O [Example 134]
45 | 1.1 nM | Cc1ccccc1C(=O)NC[C@H](NC(=O)c1ccc(C(=O)NCc2cccc(O)c2)cc1Cl)C(=O)O [Example 137]
46 | 4.8 nM | Cc1ccc(C(=O)NC[C@H](NC(=O)c2ccc(C(=O)NCc3cccc(O)c3)cc2Cl)C(=O)O)cc1 [Example 139]
47 | 1.9 nM | O=C(NCc1cccc(O)c1)c1ccc(C(=O)N[C@@H](CNC(=O)c2cccc([N+](=O)[O-])c2)C(=O)O)c(Cl)c1 [Example 141]
48 | 2 nM | O=C(NCc1cccc(O)c1)c1ccc(C(=O)N[C@@H](CNC(=O)c2ccc([N+](=O)[O-])cc2)C(=O)O)c(Cl)c1 [Example 142]
49 | 6.6 nM | O=C(NCc1cccc(O)c1)c1ccc(C(=O)N[C@@H](CNC(=O)c2ccccc2Oc2ccccc2)C(=O)O)c(Cl)c1 [Example 144]
50 | 2.9 nM | O=C(NCc1cccc(O)c1)c1ccc(C(=O)N[C@@H](CNC(=O)c2ccc([N+](=O)[O-])o2)C(=O)O)c(Cl)c1 [Example 149]
51 | 2.5 nM | O=C(NCc1cccc(O)c1)c1ccc(C(=O)N[C@@H](CNC(=O)c2ccc(Br)o2)C(=O)O)c(Cl)c1 [Example 150]
52 | 2.8 nM | O=C(NCc1cccc(O)c1)c1ccc(C(=O)N[C@@H](CNC(=O)c2ccc[nH]2)C(=O)O)c(Cl)c1 [Example 151]
53 | 0.9 nM | O=C(NCc1cccc(O)c1)c1ccc(C(=O)N[C@@H](CNC(=O)c2sccc2Br)C(=O)O)c(Cl)c1 [Example 154]
54 | 1 nM | O=C(NCc1cccc(O)c1)c1ccc(C(=O)N[C@@H](CNC(=O)c2sccc2Cl)C(=O)O)c(Cl)c1 [Example 156]
55 | 7.5 nM | O=C(NCc1cccc(O)c1)c1ccc(C(=O)N[C@@H](CNC(=O)c2cc(Br)c(Br)s2)C(=O)O)c(Cl)c1 [Example 158]
56 | 0.9 nM | Cc1ccsc1C(=O)NC[C@H](NC(=O)c1ccc(C(=O)NCc2cccc(O)c2)cc1Cl)C(=O)O [Example 159]
57 | 8.8 nM | CC(=O)Nc1nc(C)c(S(=O)(=O)NC[C@H](NC(=O)c2ccc(C(=O)N[C@H](C)c3cccc4ccccc34)cc2Cl)C(=O)O)s1 [Example 362]
58 | 7.7 nM | O=C(NCc1ccc(C(=O)N[C@@H](CNC(=O)c2ccccc2)C(=O)O)c(Cl)c1)c1cccc(O)c1 [Example 364, N-[2-chloro-4-[[(3-hydroxyphenyl)carbonyl]aminomethyl]benzoyl]-3-benzoylamino-L-alanine]
59 | 18 nM | O=C(NC[C@H](NC(=O)c1ccc(CNC(=O)c2ccccc2O)cc1Cl)C(=O)O)c1ccccc1 [Example 365]
60 | 3.4 nM | O=C(NCc1ccc(C(=O)N[C@@H](CNC(=O)c2ccccc2)C(=O)O)c(Cl)c1)c1cc(O)cc(O)c1 [Example 366]
61 | 10 nM | N=C(N)NC[C@H](NC(=O)c1ccc(C(=O)NCc2cccc(O)c2)cc1Cl)C(=O)O [Example 371, N-[2-chloro-4-[[[(3-hydroxyphenyl)methyl]amino]-carbonyl]benzoyl]-3-(aminoiminomethyl)amino-L-alanine]
